Data taken from ChEMBL document CHEMBL3751705, “Synthesis and antituberculosis activity of indole-pyridine derived hydrazides, hydrazide-hydrazones, and thiosemicarbazones” (Bioorg Med Chem Lett, 2016).
In brackets after ≈: the same amount, converted by molar mass.

Each compound was assayed on Mycobacterium tuberculosis (assay: Antituberculosis activity against isoniazid-resistant Mycobacterium tuberculosis CN-40 by microdilution method).
Type: functional
Work on `CCOC(=O)c1[nH]c2ccccc2c1CNNC(=O)c1cc[n+]([O-])cc1` yielded an MIC of 10 µg/mL (≈ 28.2 µM). `CC(=O)n1cc(NNC(=O)c2ccc[n+]([O-])c2)c2ccccc21` showed an MIC of 10 µg/mL (≈ 32.2 µM). `Cc1ccc2[nH]c(C(=O)O)c(/C=N\NC(=O)c3ccncc3)c2c1` gave an MIC of 4 µg/mL (≈ 12.4 µM). `CCOC(=O)c1[nH]c2ccccc2c1CNNC(=O)c1ccncc1` gave an MIC of 10 µg/mL (≈ 29.6 µM). `CCOC(=O)c1[nH]c2ccc(C)cc2c1/C=N/NC(N)=S` showed an MIC of 2 µg/mL (≈ 6.57 µM). `CCOC(=O)c1[nH]c2ccc(C)cc2c1/C=N\NC(=O)c1ccncc1` was tested, and the MIC was 2 µg/mL (≈ 5.71 µM). Compound `CCOC(=O)c1[nH]c2ccc(Cl)cc2c1CNNC(=O)c1ccncc1` has an MIC of 10 µg/mL (≈ 26.8 µM). With `O=C(N/N=C\c1c[nH]c2ccccc12)c1ccncc1` the MIC was 10 µg/mL (≈ 37.8 µM). In the case of `NNC(=O)c1ccc[n+]([O-])c1`, the MIC is reported as greater than 20 µg/mL. Compound `CCOC(=O)c1[nH]c2ccccc2c1/C=N\NC(=O)c1cc[n+]([O-])cc1` has an MIC of 10 µg/mL (≈ 28.4 µM). In the case of `CCOC(=O)c1[nH]c2ccc(C)cc2c1CNNC(=O)c1ccncc1`, the MIC is reported as 10 µg/mL (≈ 28.4 µM). Compound `CCOC(=O)c1[nH]c2ccccc2c1/C=N\NC(=O)c1ccncc1` has an MIC of 2 µg/mL (≈ 5.95 µM). With `NNC(=O)c1cc[n+]([O-])cc1` the MIC was greater than 20 µg/mL. `O=C(NNCc1c[nH]c2ccccc12)c1ccncc1` gave an MIC of 10 µg/mL (≈ 37.6 µM). `CCOC(=O)c1[nH]c2ccc(Cl)cc2c1/C=N\NC(=O)c1ccncc1` showed an MIC of 2 µg/mL (≈ 5.39 µM). `CC(=O)n1cc(NNC(=O)c2cc[n+]([O-])cc2)c2ccccc21` showed an MIC of 10 µg/mL (≈ 32.2 µM). `O=C(N/N=C\c1c[nH]c2ccccc12)c1cc[n+]([O-])cc1` was tested, and the MIC was 10 µg/mL (≈ 35.7 µM). For `CC(=O)n1cc(NNC(=O)c2ccncc2)c2ccccc21`, the MIC was 2 µg/mL (≈ 6.8 µM). Work on `NNC(=O)c1ccncc1` [ISONIAZID] yielded an MIC of 20 µg/mL (≈ 146 µM). Compound `NNC(=O)c1cccnc1` [NICOTINIC ACID HYDRAZIDE] has an MIC greater than 20 µg/mL.
